Data taken from US20230172205A1 (priority 2020, published 2023).
Where two headings read alike, the source gives them in different places.

Assays:
[1] = tested on: Phakopsora pachyrhizi, strain with amino acid substitution F129L in the mitochondrial cytochrome b protein; test: Protective control of soybean rust on soybeans (PHAKPA P6); format: in vivo
Pyricularia oryzae = test: microbe, parasite or virus in culture; format: cell-based; settings: for Fungal growth (%) PYRIOR: 0.016 ppm; for activity at 0.016 ppm: Pyricularia oryzae, 168 h, read-out: Fungal growth (%) PYRIOR
[2] = tested on: Alternaria solani, Qo inhibitor-resistant isolate containing F129L in the mitochondrial cytochrome b protein; test: Micro titer plate test, activity against Alternaria solani causing early blight (ALTESO), F129L; format: cell-based; settings: for activity at 0.016 ppm: Alternaria solani, 168 h
[3] = tested on: Phakopsora pachyrhizi, strain with amino acid substitution F129L in the mitochondrial cytochrome b protein; test: Protective control of soybean rust on soybeans (PHAKPA P2); format: in vivo
Septoria tritici = test: microbe, parasite or virus in culture; format: cell-based; settings: Zymoseptoria tritici, 168 h, read-out: Fungal growth (%) SEPTTR
[4] = tested on: Colletotrichum orbiculare; test: microbe, parasite or virus in culture; format: cell-based; settings: 168 h, read-out: Fungal growth (%) COLLLA
[5] = tested on: Alternaria solani, sensitive wild-type isolate (wt); test: microbe, parasite or virus in culture; format: cell-based; settings: 168 h, read-out: Fungal growth (%) ALTESO wt
[6] = tested on: Phakopsora pachyrhizi, isolate sensitive to Qo inhibitors (wt); test: Protective control of soybean rust on detached soybean leaves (PHAKPA P1 DL), wt isolate; format: in vivo; settings: Table C6a
[7] = tested on: Phakopsora pachyrhizi, isolate with amino acid substitution F129L in the mitochondrial cytochrome b protein; test: Protective control of soybean rust on detached soybean leaves (PHAKPA P1 DL), F129L isolate; format: in vivo; settings: Table C6b
Microdochium nivale = test: microbe, parasite or virus in culture; format: cell-based; settings: 168 h, read-out: Fungal growth (%) MONGNI
[8] = Table C2, protective, inoculation six days after spraying, 4 ppm, % diseased leaf area on soybean, untreated 99
[9] = protective P2, 4 ppm, soybean rust F129L strain
[10] = protective P2, 16 ppm, soybean rust F129L strain
[11] = protective P6, 4 ppm, soybean rust F129L strain
[12] = protective P6, 16 ppm, soybean rust F129L strain
[13] = Table 1, protective P2, 4 ppm, F129L strain
[14] = Table 1, protective P2, 16 ppm, F129L strain
[15] = Table 1, protective P6, 4 ppm, F129L strain
[16] = Table 1, protective P6, 16 ppm, F129L strain

CNC(=O)/C(=N/OC)c1cccc(C)c1CO/N=C(\C)c1cccc(C(F)(F)F)c1 [Ex. 8]
PHAKPA (F129L) Disease level (%) P6 at 4 ppm ([1]; P6 at 4 ppm, untreated 75%): 1%
PHAKPA (F129L) Disease level (%) P6 at 4 ppm [1, 8]: 13%
Fungal growth (%) PYRIOR (Pyricularia oryzae; Table C11a): 13%
Fungal growth (%) ALTESO F129L ([2]; Table C11a, 0.016 ppm): 52%

CO/N=C(/C(=O)OC)c1cccc(C)c1CO/N=C(\C)c1cccc(C(F)(F)F)c1 [Ex. 9]
PHAKPA (F129L) Disease level (%) P2 at 4 ppm ([3]; Table C1, protective, inoculation 2 days after spraying, 4 ppm, % diseased leaf area on soybean): 35%
PHAKPA (F129L) Disease level (%) P2 at 4 ppm ([3]; Table C7b, 4 ppm, untreated 92): 6%
PHAKPA (F129L) Disease level (%), P6 at 16 ppm ([1]; P6 at 16 ppm, untreated 75%): 1%
PHAKPA (F129L) Disease level (%), P6 at 16 ppm ([1]; Table C1, protective, inoculation six days after spraying, 16 ppm, % diseased leaf area on soybean): 4%
Fungal growth (%) PYRIOR (Pyricularia oryzae; Table C9): 38%

CNC(=O)/C(=N/OC)c1cccc(C)c1CO/N=C(\C)c1cccc(C)c1 [Ex. 77]
PHAKPA (F129L) Disease level (%) P2 at 4 ppm ([3]; P2 at 4 ppm, untreated 92%): 37%
% PHAKPA (F129L) Disease level, P2 at 4 ppm [3, 9]: 67%
% PHAKPA (F129L) Disease level, P2 at 16 ppm [3, 10]: 4%
PHAKPA (F129L) Disease level (%), P6 at 16 ppm ([1]; P6 at 16 ppm, untreated 75%): 20%
% PHAKPA (F129L) Disease level, P6 at 4 ppm [1, 11]: 40%
% PHAKPA (F129L) Disease level, P6 at 16 ppm [1, 12]: 3%
activity at 0.016 ppm (Pyricularia oryzae): 20%
activity at 0.25 ppm (Septoria tritici): 49%
activity at 0.063 ppm [4]: 39%
activity at 0.016 ppm [5]: 73%
activity at 0.016 ppm ([2]; Table C14, read-out: Fungal growth (%) ALTESO F129L): 69%

CNC(=O)/C(=N/OC)c1cccc(C)c1CO/N=C(\C)c1ccc(Cl)cc1 [Ex. 158]
PHAKPA (F129L) Disease level (%) P2 at 4 ppm ([3]; Table C2, protective, inoculation 2 days after spraying, 4 ppm, % diseased leaf area on soybean, untreated 100): 1%
% PHAKPA (F129L) Disease level, P2 at 4 ppm [3, 9]: 0%
% PHAKPA (F129L) Disease level, P2 at 16 ppm [3, 10]: 0%
PHAKPA (F129L) Disease level (%) P6 at 4 ppm [1, 8]: 4%
% PHAKPA (F129L) Disease level, P6 at 4 ppm [1, 11]: 2%
% PHAKPA (F129L) Disease level, P6 at 16 ppm [1, 12]: 0%
PHAKPA P1 DL Disease level (%), Qo I-sensitive wt isolate (0% F129L) ([6]; 0.3 ppm, 0 ppm control 93): 38%
PHAKPA P1 DL Disease level (%), Qo I-sensitive wt isolate (0% F129L) ([6]; 1 ppm): 7%
PHAKPA P1 DL Disease level (%), Qo I-sensitive wt isolate (0% F129L) ([6]; 3 ppm): 2%
PHAKPA P1 DL Disease level (%), Qo I-sensitive wt isolate (0% F129L) ([6]; 10 ppm): 1%
PHAKPA P1 DL Disease level (%), Qo I-sensitive wt isolate (0% F129L) ([6]; 30 ppm): 4%
PHAKPA P1 DL Disease level (%), Qo I-sensitive wt isolate (0% F129L) ([6]; 100 ppm): 5%
PHAKPA P1 DL Disease level (%), Qo I-sensitive wt isolate (0% F129L) ([6]; 300 ppm): 4%
PHAKPA P1 DL Disease level (%), Qo I-resistant F129L isolate (100% F129L) ([7]; 0.3 ppm, 0 ppm control 93): 87%
PHAKPA P1 DL Disease level (%), Qo I-resistant F129L isolate (100% F129L) ([7]; 1 ppm): 57%
PHAKPA P1 DL Disease level (%), Qo I-resistant F129L isolate (100% F129L) ([7]; 3 ppm): 8%
PHAKPA P1 DL Disease level (%), Qo I-resistant F129L isolate (100% F129L) ([7]; 10 ppm): 2%
PHAKPA P1 DL Disease level (%), Qo I-resistant F129L isolate (100% F129L) ([7]; 30 ppm): 4%
PHAKPA P1 DL Disease level (%), Qo I-resistant F129L isolate (100% F129L) ([7]; 100 ppm): 4%
PHAKPA P1 DL Disease level (%), Qo I-resistant F129L isolate (100% F129L) ([7]; 300 ppm): 5%
activity at 0.016 ppm (Pyricularia oryzae): 38%
activity at 0.016 ppm [5]: 66%
activity at 0.016 ppm ([2]; Table C5, read-out: Fungal growth (%) ALTESO F129L): 79%
activity at 0.016 ppm (Microdochium nivale): 71%

CO/C=C(/C(=O)OC)c1cccc(C)c1CO/N=C(\C)c1ccc(OC(F)(F)F)cc1Cl [compound 463]
% PHAKPA (F129L) Disease level, P2 at 4 ppm [3, 13]: 6%
% PHAKPA (F129L) Disease level, P2 at 16 ppm [3, 14]: 0%
% PHAKPA (F129L) Disease level, P6 at 4 ppm [1, 15]: 3%
% PHAKPA (F129L) Disease level, P6 at 16 ppm [1, 16]: 0%

CO/C=C(/C(=O)OC)c1cccc(C)c1CO/N=C(\C)c1ccc(OC)cc1C(F)(F)F [compound 464]
% PHAKPA (F129L) Disease level, P2 at 4 ppm [3, 13]: 1%
% PHAKPA (F129L) Disease level, P2 at 16 ppm [3, 14]: 0%
% PHAKPA (F129L) Disease level, P6 at 4 ppm [1, 15]: 8%
% PHAKPA (F129L) Disease level, P6 at 16 ppm [1, 16]: 0%

CO/N=C(/C(=O)OC)c1cccc(C)c1CO/N=C(\C)c1cccc(OC(F)(F)F)c1 [drawing 939, reference compound]
Fungal growth (%) PYRIOR (Pyricularia oryzae; Table C8a): 100%

CNC(=O)/C(=N/OC)c1ccccc1CO/N=C(\C)c1cc(F)ccc1F [reference compound]
PHAKPA (F129L) Disease level (%), P2 at 16 ppm ([3]; Table C4, 16 ppm, untreated >90): 1%
PHAKPA (F129L) Disease level (%), P6 at 16 ppm ([1]; Table C4, 16 ppm, untreated >85): 22%
